Like-named read-outs stand apart in the source and are kept apart here.
What was measured:
Assay type in all cases: binding
[1] = molecular target: T1, HeLa cell extract proteins (Homo sapiens, UniProt O00571)
T1 construct: endogenous in cells; host or cells: HeLa cell extract

[2] = molecular target: T2, HeLa cell extract proteins (Homo sapiens, UniProt O95486)
T2 construct: endogenous in cells; host or cells: HeLa cell extract
T2 sequence (O95486 1-1093): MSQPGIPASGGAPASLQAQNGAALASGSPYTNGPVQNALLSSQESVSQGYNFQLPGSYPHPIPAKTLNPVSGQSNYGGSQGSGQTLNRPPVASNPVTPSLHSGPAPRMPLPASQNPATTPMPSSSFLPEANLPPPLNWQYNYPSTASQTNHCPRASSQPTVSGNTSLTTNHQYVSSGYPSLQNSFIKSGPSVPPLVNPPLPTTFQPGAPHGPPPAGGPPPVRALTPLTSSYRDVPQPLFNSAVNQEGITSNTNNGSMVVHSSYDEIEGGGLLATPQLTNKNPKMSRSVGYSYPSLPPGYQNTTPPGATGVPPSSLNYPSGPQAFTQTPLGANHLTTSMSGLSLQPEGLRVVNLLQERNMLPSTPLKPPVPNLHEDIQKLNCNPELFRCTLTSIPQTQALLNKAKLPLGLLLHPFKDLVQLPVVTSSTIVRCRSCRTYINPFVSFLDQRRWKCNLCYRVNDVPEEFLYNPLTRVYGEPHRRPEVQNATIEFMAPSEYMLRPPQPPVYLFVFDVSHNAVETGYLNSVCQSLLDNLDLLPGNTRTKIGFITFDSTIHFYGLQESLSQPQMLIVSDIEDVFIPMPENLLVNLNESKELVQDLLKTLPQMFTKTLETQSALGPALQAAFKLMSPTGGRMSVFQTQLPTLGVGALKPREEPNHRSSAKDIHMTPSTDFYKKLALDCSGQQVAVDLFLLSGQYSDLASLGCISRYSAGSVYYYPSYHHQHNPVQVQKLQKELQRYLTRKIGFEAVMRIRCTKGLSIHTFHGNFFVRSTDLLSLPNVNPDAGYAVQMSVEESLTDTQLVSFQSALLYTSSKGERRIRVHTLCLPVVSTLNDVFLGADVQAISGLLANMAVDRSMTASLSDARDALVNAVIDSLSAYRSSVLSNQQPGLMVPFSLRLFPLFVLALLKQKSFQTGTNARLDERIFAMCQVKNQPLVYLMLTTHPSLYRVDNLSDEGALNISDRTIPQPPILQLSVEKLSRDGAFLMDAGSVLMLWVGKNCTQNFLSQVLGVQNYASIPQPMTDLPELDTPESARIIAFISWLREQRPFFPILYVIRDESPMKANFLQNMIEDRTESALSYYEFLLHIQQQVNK

[3] = molecular target: T3, HeLa cell extract proteins (Homo sapiens, UniProt P00966)
T3 construct: endogenous in cells; host or cells: HeLa cell extract
T3 sequence (P00966 1-412): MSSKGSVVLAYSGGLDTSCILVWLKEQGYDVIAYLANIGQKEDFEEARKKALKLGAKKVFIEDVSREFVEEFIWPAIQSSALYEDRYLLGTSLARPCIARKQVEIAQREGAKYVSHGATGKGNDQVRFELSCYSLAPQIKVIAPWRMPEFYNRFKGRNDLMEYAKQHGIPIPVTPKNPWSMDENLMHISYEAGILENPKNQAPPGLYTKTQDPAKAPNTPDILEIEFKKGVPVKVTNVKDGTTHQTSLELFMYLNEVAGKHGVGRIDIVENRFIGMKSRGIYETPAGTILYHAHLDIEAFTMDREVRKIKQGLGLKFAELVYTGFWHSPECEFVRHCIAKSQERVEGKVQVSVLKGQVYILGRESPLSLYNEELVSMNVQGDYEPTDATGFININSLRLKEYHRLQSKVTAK

[4] = molecular target: T4, HeLa cell extract proteins (Homo sapiens, UniProt P15311)
T4 construct: endogenous in cells; host or cells: HeLa cell extract
T4 sequence (P15311 whole entry): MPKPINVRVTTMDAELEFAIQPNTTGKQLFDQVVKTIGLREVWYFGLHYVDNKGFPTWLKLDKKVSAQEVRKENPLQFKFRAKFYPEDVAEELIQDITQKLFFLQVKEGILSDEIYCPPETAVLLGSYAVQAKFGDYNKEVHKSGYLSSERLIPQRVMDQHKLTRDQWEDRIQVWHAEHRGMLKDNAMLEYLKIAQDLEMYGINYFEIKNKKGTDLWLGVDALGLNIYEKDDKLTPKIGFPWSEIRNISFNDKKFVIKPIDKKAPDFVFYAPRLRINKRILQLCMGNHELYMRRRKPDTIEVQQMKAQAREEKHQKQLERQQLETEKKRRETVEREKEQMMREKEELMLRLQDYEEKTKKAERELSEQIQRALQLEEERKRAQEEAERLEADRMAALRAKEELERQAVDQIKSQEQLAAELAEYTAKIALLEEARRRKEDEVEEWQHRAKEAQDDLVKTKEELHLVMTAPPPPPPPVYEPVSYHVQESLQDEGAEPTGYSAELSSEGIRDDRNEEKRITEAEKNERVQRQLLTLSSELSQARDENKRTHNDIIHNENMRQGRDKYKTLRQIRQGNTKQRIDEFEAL

[5] = molecular target: T5, HeLa cell extract proteins (Homo sapiens, UniProt Q01650)
T5 construct: endogenous in cells; host or cells: HeLa cell extract
T5 sequence (Q01650 whole entry): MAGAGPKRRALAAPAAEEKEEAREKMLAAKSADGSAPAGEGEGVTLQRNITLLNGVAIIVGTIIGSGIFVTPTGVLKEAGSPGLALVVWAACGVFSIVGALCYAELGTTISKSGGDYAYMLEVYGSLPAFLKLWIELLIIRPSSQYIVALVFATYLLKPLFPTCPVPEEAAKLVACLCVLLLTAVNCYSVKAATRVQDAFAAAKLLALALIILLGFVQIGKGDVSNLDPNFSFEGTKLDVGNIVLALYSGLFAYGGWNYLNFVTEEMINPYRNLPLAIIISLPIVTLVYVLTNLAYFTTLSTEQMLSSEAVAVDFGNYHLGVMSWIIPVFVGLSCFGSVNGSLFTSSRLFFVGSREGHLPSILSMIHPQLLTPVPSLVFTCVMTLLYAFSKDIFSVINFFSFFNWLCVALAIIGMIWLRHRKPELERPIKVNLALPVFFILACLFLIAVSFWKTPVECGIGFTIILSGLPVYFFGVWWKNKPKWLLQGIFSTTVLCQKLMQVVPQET

[6] = molecular target: T6, HeLa cell extract proteins (Homo sapiens, UniProt Q92945)
T6 construct: endogenous in cells; host or cells: HeLa cell extract
T6 sequence (Q92945 1-711): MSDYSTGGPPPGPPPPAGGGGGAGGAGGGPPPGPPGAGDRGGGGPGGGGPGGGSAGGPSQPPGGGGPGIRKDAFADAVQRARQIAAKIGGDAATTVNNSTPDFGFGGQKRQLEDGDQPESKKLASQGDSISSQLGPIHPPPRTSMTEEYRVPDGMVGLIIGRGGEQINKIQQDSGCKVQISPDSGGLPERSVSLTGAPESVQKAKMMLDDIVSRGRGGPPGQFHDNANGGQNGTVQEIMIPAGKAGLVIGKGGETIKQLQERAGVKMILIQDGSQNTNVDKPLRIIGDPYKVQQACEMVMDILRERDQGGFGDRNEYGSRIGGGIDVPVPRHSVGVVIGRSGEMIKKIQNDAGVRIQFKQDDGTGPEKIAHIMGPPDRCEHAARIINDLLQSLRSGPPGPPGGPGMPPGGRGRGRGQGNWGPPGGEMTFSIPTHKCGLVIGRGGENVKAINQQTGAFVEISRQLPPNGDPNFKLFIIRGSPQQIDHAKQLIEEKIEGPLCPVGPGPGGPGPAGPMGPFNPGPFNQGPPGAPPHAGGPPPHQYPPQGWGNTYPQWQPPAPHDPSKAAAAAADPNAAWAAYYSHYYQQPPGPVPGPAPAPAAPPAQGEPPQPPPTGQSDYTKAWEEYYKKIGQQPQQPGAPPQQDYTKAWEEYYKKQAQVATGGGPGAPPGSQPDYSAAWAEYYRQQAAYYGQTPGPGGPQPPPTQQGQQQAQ

[7] = molecular target: T7, HeLa cell extract proteins (Homo sapiens, UniProt Q9C0E2)
T7 construct: endogenous in cells; host or cells: HeLa cell extract
T7 sequence (Q9C0E2 whole entry): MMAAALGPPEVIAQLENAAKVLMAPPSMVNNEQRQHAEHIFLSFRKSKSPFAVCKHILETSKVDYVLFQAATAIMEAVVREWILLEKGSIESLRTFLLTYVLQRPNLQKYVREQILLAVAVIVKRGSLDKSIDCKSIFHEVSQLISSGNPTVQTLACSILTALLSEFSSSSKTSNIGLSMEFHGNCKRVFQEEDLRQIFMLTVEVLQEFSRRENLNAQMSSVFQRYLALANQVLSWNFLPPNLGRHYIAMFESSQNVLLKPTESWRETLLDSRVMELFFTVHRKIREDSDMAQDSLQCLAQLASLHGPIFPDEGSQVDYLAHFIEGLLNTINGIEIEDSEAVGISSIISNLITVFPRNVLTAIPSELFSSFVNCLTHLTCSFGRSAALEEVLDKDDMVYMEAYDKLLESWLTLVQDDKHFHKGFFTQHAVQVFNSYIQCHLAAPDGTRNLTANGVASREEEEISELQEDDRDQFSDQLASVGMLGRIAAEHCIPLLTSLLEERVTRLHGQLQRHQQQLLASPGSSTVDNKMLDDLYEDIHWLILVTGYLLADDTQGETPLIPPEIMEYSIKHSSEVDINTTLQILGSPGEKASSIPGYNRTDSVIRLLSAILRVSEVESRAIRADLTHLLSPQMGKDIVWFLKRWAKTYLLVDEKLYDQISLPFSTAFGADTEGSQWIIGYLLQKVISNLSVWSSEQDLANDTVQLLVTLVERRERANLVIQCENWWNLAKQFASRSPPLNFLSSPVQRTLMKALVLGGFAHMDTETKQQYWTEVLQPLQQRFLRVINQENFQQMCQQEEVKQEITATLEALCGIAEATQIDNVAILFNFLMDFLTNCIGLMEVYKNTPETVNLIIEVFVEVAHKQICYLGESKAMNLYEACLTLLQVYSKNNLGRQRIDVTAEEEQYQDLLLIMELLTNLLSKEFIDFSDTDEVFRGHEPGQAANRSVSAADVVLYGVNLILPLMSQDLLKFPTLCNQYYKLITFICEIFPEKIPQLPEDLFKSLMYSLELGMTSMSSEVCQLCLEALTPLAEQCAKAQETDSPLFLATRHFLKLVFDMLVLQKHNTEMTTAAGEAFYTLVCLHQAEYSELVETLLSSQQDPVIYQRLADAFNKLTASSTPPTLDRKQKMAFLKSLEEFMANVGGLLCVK

[8] = HeLa, protein ASS1 (ARGININOSUCCINATE SYNTHASE.)

T1 sequence (O00571 whole entry): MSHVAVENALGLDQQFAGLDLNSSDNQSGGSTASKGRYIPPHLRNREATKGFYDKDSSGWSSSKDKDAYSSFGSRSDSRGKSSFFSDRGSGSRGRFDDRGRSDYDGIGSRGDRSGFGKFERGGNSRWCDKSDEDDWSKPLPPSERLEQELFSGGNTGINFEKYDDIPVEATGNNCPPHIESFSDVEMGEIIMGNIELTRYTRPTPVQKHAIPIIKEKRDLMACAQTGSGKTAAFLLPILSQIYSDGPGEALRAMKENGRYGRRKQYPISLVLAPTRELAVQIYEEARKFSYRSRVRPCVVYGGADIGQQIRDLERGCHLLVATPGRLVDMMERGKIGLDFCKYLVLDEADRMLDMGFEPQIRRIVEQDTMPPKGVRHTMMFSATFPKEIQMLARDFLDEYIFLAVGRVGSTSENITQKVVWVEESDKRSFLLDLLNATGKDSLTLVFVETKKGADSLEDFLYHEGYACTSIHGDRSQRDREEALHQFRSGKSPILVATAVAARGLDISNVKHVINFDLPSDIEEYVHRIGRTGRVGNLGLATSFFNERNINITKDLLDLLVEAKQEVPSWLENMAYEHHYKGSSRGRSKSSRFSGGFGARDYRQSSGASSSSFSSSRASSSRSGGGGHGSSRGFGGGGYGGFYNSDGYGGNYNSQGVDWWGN

## Nc1nc2c(c(=O)[nH]1)N(C=O)C(CNc1ccc(C(=O)N[C@@H](CCC(=O)O)C(=O)O)cc1)CN2 (stereo partly shown) [LEU, leucovorin]
[1]; HeLa, captured protein DDX3X
  fold changes relative to vehicle control: 0.94
[2]; HeLa, protein SEC24A
  fold changes relative to vehicle control: 1.02
[3]; HeLa, protein ASS1
  fold changes relative to vehicle control: 1.03
[4]; HeLa, protein EZR
  fold changes relative to vehicle control: 0.94
[5]; HeLa, captured protein SLC7A5
  fold changes relative to vehicle control: 1.02
[6]; HeLa, protein KHSRP
  fold changes relative to vehicle control: 0.9
[7]; HeLa, protein XPO4
  fold changes relative to vehicle control: 0.92

## Nc1nc2[nH]cc(CCc3ccc(C(=O)N[C@@H](CCC(=O)O)C(=O)O)cc3)c2c(=O)[nH]1 [PTX, pemetrexed]
[1]
  fold changes relative to vehicle control: 0.86
[2]
  fold changes relative to vehicle control: 1.03
[3]
  fold changes relative to vehicle control: 1.23
[4]
  fold changes relative to vehicle control: 1
[5]
  fold changes relative to vehicle control: 0.8
[6]
  fold changes relative to vehicle control: 0.97
[7]
  fold changes relative to vehicle control: 0.82

## CCCCCCOc1ccc(Cc2cnc(N)nc2N)cc1 [compound 1]
[1]; protein DDX3X, HeLa
  fold changes relative to vehicle control: 0.96
[2]; protein SEC24A, HeLa
  fold changes relative to vehicle control: 1.15
[3]; [8]
  fold changes relative to vehicle control: 1.53 fold
[4]; protein EZR, HeLa
  fold changes relative to vehicle control: 1.23
[5]; HeLa, protein SLC7A5
  fold changes relative to vehicle control: 0.97
[6]; captured protein KHSRP, HeLa
  fold changes relative to vehicle control: 0.74
[7]; HeLa, protein XPO4
  fold changes relative to vehicle control: 0.91

## CCCCCCOc1cccc(Cc2cnc(N)nc2N)c1 [compound 2]
[1]; protein DDX3X, HeLa
  fold changes relative to vehicle control: 1.05
[2]; protein SEC24A, HeLa
  fold changes relative to vehicle control: 1.44
[3]; [8]
  fold changes relative to vehicle control: 2.2 fold
[4]; protein EZR, HeLa
  fold changes relative to vehicle control: 1.87
[5]; HeLa, protein SLC7A5
  fold changes relative to vehicle control: 1.01
[6]; captured protein KHSRP, HeLa
  fold changes relative to vehicle control: 0.96
[7]; HeLa, protein XPO4
  fold changes relative to vehicle control: 1.08

## Nc1nc2cccc(-c3ccccc3)c2n1Cc1ccc(Cl)c(Cl)c1 [compound 3]
[1]; protein DDX3X, HeLa
  fold changes relative to vehicle control: 0.94
[2]; protein SEC24A, HeLa
  fold changes relative to vehicle control: 1.03
[3]; HeLa, protein ASS1 (ARGININ[…].)
  fold changes relative to vehicle control: 0.97 fold
[4]; protein EZR, HeLa
  fold changes relative to vehicle control: 0.8
[5]; HeLa, protein SLC7A5
  fold changes relative to vehicle control: 1.06
[6]; captured protein KHSRP, HeLa
  fold changes relative to vehicle control: 0.84
[7]; HeLa, protein XPO4
  fold changes relative to vehicle control: 1.07

## NCCOCCOCC(=O)Nc1nc2ncc(CNc3ccc(C(=O)NC(CCC(=O)O)C(=O)O)cc3)nc2c(=O)[nH]1 (stereo not shown) [compound 6]
[1]; HeLa, captured protein DDX3X
  fold changes relative to vehicle control: 0.9
[2]; HeLa, protein SEC24A
  fold changes relative to vehicle control: 1.03
[3]; HeLa, protein ASS1
  fold changes relative to vehicle control: 1.43
[4]; HeLa, protein EZR
  fold changes relative to vehicle control: 1.16
[5]; HeLa, captured protein SLC7A5
  fold changes relative to vehicle control: 0.76
[6]; HeLa, protein KHSRP
  fold changes relative to vehicle control: 0.96
[7]; HeLa, protein XPO4
  fold changes relative to vehicle control: 0.94

## NCCCNc1ccc(C(=O)NC(CCC(=O)O)C(=O)O)cc1 (stereo not shown) [compound 7]
[1]; HeLa, captured protein DDX3X
  fold changes relative to vehicle control: 0.93
[2]; HeLa, protein SEC24A
  fold changes relative to vehicle control: 1.01
[3]; HeLa, protein ASS1
  fold changes relative to vehicle control: 1.01
[4]; HeLa, protein EZR
  fold changes relative to vehicle control: 0.92
[5]; HeLa, captured protein SLC7A5
  fold changes relative to vehicle control: 0.97
[6]; HeLa, protein KHSRP
  fold changes relative to vehicle control: 0.95
[7]; HeLa, protein XPO4
  fold changes relative to vehicle control: 1

Reference: PMC6199744, “Development of Chemical Proteomics for the Folateome and Analysis of the Kinetoplastid Folateome” (ACS Infectious Diseases, 2018)
